Experimental data published in ChEMBL document CHEMBL6182944, “Substrate Specificity of the Organic Cation Transporters MATE1 and MATE2K and Functional Overlap with OCT1 and OCT2” (J Med Chem, 2025).

Experiments:
MATE2-K = target: T1, MATE2-K (Homo sapiens, UniProt Q86VL8); assay: in vitro
T1 sequence (Q86VL8 whole entry): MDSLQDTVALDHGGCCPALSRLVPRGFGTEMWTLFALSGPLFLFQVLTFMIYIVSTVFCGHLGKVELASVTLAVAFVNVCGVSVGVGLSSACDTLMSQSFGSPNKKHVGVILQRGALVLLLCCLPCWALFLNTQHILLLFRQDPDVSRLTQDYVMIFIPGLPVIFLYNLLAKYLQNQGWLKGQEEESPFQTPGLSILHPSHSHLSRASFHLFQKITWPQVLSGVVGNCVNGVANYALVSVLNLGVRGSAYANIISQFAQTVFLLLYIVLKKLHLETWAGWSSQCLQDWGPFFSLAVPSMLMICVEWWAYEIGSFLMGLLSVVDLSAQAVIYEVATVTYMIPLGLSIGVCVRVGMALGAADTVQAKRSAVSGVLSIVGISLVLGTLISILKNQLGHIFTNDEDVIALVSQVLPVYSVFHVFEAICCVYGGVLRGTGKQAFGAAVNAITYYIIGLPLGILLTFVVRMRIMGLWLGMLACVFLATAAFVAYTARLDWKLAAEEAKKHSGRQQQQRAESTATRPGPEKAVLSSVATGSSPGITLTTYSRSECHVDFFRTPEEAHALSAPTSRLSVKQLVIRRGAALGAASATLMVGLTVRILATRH

MATE1 = target: T2, MATE1 (Homo sapiens, UniProt Q96FL8); assay: in vitro
T2 sequence (Q96FL8 whole entry): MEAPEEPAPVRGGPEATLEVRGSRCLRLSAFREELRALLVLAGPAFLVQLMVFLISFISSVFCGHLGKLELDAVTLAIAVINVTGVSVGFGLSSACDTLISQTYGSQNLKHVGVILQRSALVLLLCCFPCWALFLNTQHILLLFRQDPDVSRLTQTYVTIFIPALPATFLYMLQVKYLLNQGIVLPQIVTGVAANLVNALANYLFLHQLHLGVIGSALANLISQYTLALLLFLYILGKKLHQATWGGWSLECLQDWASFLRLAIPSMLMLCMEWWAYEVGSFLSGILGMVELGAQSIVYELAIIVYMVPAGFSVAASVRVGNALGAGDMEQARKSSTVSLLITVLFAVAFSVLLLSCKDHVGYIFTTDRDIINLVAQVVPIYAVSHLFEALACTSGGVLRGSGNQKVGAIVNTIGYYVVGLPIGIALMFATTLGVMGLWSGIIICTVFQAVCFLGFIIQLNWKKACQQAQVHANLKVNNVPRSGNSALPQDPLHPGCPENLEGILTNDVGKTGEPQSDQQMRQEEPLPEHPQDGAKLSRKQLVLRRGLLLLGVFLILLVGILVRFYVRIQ

[1] = HEK293 cells expressing MATE2-K

In the case of `CCCC(=O)Nc1ccc(OCC(O)CNC(C)C)c(C(C)=O)c1` (stereo not drawn) [ACEBUTOLOL], the uptake ratio at 1 min, 2.5 µM (MATE2-K; hek293) is reported as over 2 and the uptake ratio at 1 min, 2.5 µM (MATE1; hek293) is reported as over 2.
Compound `N=C(N)NCCCCN` [AGMATINE] has an uptake ratio at 1 min, 2.5 µM (MATE2-K; [1]) of under 2 and an uptake ratio at 1 min, 2.5 µM (MATE1; HEK293 cells expressing MATE1) of under 2.
Compound `C=CCN1CCCC1CNC(=O)c1cc2[nH]nnc2cc1OC` (stereo not drawn) [ALIZAPRIDE] has an uptake ratio at 1 min, 2.5 µM (MATE2-K; [1]) of over 2 and an uptake ratio at 1 min, 2.5 µM (MATE1; HEK293 cells expressing MATE1) of over 2.
Compound `CN(C)CCc1c[nH]c2ccc(CS(=O)(=O)N3CCCC3)cc12` [ALMOTRIPTAN] has an uptake ratio at 1 min, 2.5 µM (MATE2-K; [1]) of over 2 and an uptake ratio at 1 min, 2.5 µM (MATE1; HEK293 cells expressing MATE1) of over 2.
`Nc1ccncc1N` [AMIFAMPRIDINE] showed an uptake ratio at 1 min, 2.5 µM (MATE2-K; [1]) of over 2 and an uptake ratio at 1 min, 2.5 µM (MATE1; HEK293 cells expressing MATE1) of over 2.
In the case of `NC(N)=NCCCCN=C(N)N` [ARCAINE], the uptake ratio at 1 min, 2.5 µM (MATE2-K; [1]) is reported as over 2 and the uptake ratio at 1 min, 2.5 µM (MATE1; HEK293 cells expressing MATE1) is reported as over 2.
In the case of `O=C1CCc2ccc(OCCCCN3CCN(c4cccc(Cl)c4Cl)CC3)cc2N1` [ARIPIPRAZOLE], the uptake ratio at 1 min, 2.5 µM (MATE2-K; hek293) is reported as under 2 and the uptake ratio at 1 min, 2.5 µM (MATE1; hek293) is reported as under 2.
With `CC(=O)c1cc2cccc(OCC(O)CNC(C)C)c2o1` (stereo not drawn) [BEFUNOLOL] the uptake ratio at 1 min, 2.5 µM (MATE2-K; [1]) was under 2 and the uptake ratio at 1 min, 2.5 µM (MATE1; HEK293 cells expressing MATE1) was under 2.
`CNCCc1ccccn1` [BETAHISTINE] was tested, and the uptake ratio at 1 min, 2.5 µM (MATE2-K; hek293) was under 2 and the uptake ratio at 1 min, 2.5 µM (MATE1; hek293) was under 2.
`CC(C)NCC(O)COc1ccc(CCOCC2CC2)cc1` (stereo not drawn) [BETAXOLOL] showed an uptake ratio at 1 min, 2.5 µM (MATE2-K; hek293) of under 2 and an uptake ratio at 1 min, 2.5 µM (MATE1; hek293) of under 2.
`CCCCNC(=N)NC(=N)N` [BUFORMIN] showed an uptake ratio at 1 min, 2.5 µM (MATE2-K; hek293) of over 2 and an uptake ratio at 1 min, 2.5 µM (MATE1; hek293) of over 2.
In the case of `O=C1CC2(CCCC2)CC(=O)N1CCCCN1CCN(c2ncccn2)CC1` [BUSPIRONE], the uptake ratio at 1 min, 2.5 µM (MATE2-K; hek293) is reported as under 2 and the uptake ratio at 1 min, 2.5 µM (MATE1; hek293) is reported as over 2.
In the case of `CCCC[N+]1(C)[C@@H]2C[C@@H](OC(=O)[C@H](CO)c3ccccc3)C[C@H]1[C@@H]1O[C@@H]12` (stereo partly drawn) [BUTYLSCOPOLAMINE], the uptake ratio at 1 min, 2.5 µM (MATE2-K; [1]) is reported as under 2 and the uptake ratio at 1 min, 2.5 µM (MATE1; HEK293 cells expressing MATE1) is reported as over 2.
`CCN(CC)C(=O)Nc1ccc(OCC(O)CNC(C)(C)C)c(C(C)=O)c1` (stereo not drawn) [CELIPROLOL] was tested, and the uptake ratio at 1 min, 2.5 µM (MATE2-K; [1]) was over 2 and the uptake ratio at 1 min, 2.5 µM (MATE1; HEK293 cells expressing MATE1) was over 2.
`CN(C)CCCN1c2ccccc2Sc2ccc(Cl)cc21` [CHLORPROMAZINE] showed an uptake ratio at 1 min, 2.5 µM (MATE2-K; hek293) of under 2 and an uptake ratio at 1 min, 2.5 µM (MATE1; hek293) of under 2.
Work on `C[N+](C)(C)CCO` [CHOLINE] yielded an uptake ratio at 1 min, 2.5 µM (MATE2-K; hek293) of under 2 and an uptake ratio at 1 min, 2.5 µM (MATE1; hek293) of under 2.
`CN/C(=N/CCSCc1nc[nH]c1C)NC#N` [CIMETIDINE] gave an uptake ratio at 1 min, 2.5 µM (MATE2-K; hek293) of over 2 and an uptake ratio at 1 min, 2.5 µM (MATE1; hek293) of over 2.
In the case of `CC(C)(C)NCC(O)c1ccc(O)c(O)c1` (stereo not drawn) [COLTEROL], the uptake ratio at 1 min, 2.5 µM (MATE2-K; [1]) is reported as over 2 and the uptake ratio at 1 min, 2.5 µM (MATE1; HEK293 cells expressing MATE1) is reported as over 2.
`CN(CC(=O)O)C(=N)N` [CREATINE] gave an uptake ratio at 1 min, 2.5 µM (MATE2-K; [1]) of under 2 and an uptake ratio at 1 min, 2.5 µM (MATE1; HEK293 cells expressing MATE1) of under 2.
`CC1(C)N=C(N)N=C(N)N1c1ccc(Cl)cc1` [CYCLOGUANIL] gave an uptake ratio at 1 min, 2.5 µM (MATE2-K; [1]) of over 2 and an uptake ratio at 1 min, 2.5 µM (MATE1; HEK293 cells expressing MATE1) of over 2.
Work on `O=c1cccc2n1C[C@@H]1CNC[C@H]2C1` [CYTISINICLINE] yielded an uptake ratio at 1 min, 2.5 µM (MATE2-K; hek293) of under 2 and an uptake ratio at 1 min, 2.5 µM (MATE1; hek293) of over 2.
For `COc1cccc2c1C(=O)c1c(O)c3c(c(O)c1C2=O)C[C@@](O)(C(C)=O)C[C@@H]3O[C@H]1C[C@H](N)[C@H](O)[C@H](C)O1` [DAUNORUBICIN], the uptake ratio at 1 min, 2.5 µM (MATE2-K; [1]) was under 2 and the uptake ratio at 1 min, 2.5 µM (MATE1; HEK293 cells expressing MATE1) was under 2.
Compound `Nc1ncn([C@H]2C[C@H](O)[C@@H](CO)O2)c(=O)n1` [DECITABINE] has an uptake ratio at 1 min, 2.5 µM (MATE2-K; [1]) of under 2 and an uptake ratio at 1 min, 2.5 µM (MATE1; HEK293 cells expressing MATE1) of under 2.
`COc1cc2c(cc1OC)-c1c(C)c3ccc(OC)c(OC)c3c[n+]1CC2` [DEHYDROCORYDALINE] was tested, and the uptake ratio at 1 min, 2.5 µM (MATE2-K; [1]) was over 2 and the uptake ratio at 1 min, 2.5 µM (MATE1; HEK293 cells expressing MATE1) was over 2.
`CNCCc1ccc(O)c(O)c1` [DEOXIEPINEPHRINE] gave an uptake ratio at 1 min, 2.5 µM (MATE2-K; [1]) of over 2 and an uptake ratio at 1 min, 2.5 µM (MATE1; HEK293 cells expressing MATE1) of over 2.
`CC(C)N(CCC(C(N)=O)(c1ccccc1)c1ccccn1)C(C)C` (stereo not drawn) [DISOPYRAMIDE] was tested, and the uptake ratio at 1 min, 2.5 µM (MATE2-K; [1]) was under 2 and the uptake ratio at 1 min, 2.5 µM (MATE1; HEK293 cells expressing MATE1) was under 2.
`CC[N+](C)(C)c1cccc(O)c1` [EDROPHONIUM] gave an uptake ratio at 1 min, 2.5 µM (MATE2-K; [1]) of over 2 and an uptake ratio at 1 min, 2.5 µM (MATE1; HEK293 cells expressing MATE1) of over 2.
Work on `COC(=O)CCc1ccc(OCC(O)CNC(C)C)cc1` (stereo not drawn) [ESMOLOL] yielded an uptake ratio at 1 min, 2.5 µM (MATE2-K; [1]) of under 2 and an uptake ratio at 1 min, 2.5 µM (MATE1; HEK293 cells expressing MATE1) of under 2.
For `CCNCC(O)c1cccc(O)c1` (stereo not drawn) [ETILEFRINE], the uptake ratio at 1 min, 2.5 µM (MATE2-K; [1]) was over 2 and the uptake ratio at 1 min, 2.5 µM (MATE1; HEK293 cells expressing MATE1) was over 2.
`NC(N)=Nc1nc(CSCCC(N)=NS(N)(=O)=O)cs1` [FAMOTIDINE] showed an uptake ratio at 1 min, 2.5 µM (MATE2-K; hek293) of over 2.
In the case of `O=S(=O)(c1cccc2cnccc12)N1CCCNCC1` [FASUDIL], the uptake ratio at 1 min, 2.5 µM (MATE2-K; [1]) is reported as over 2 and the uptake ratio at 1 min, 2.5 µM (MATE1; HEK293 cells expressing MATE1) is reported as under 2.
In the case of `CC(C)(C(=O)O)c1ccc(C(O)CCCN2CCC(C(O)(c3ccccc3)c3ccccc3)CC2)cc1` (stereo not drawn) [FEXOFENADINE], the uptake ratio at 1 min, 2.5 µM (MATE2-K; [1]) is reported as under 2 and the uptake ratio at 1 min, 2.5 µM (MATE1; HEK293 cells expressing MATE1) is reported as under 2.
